Results reported in paper PMC9394284, “Discovery of Novel Dual Adenosine A2A and A1 Receptor Antagonists with 1H-Pyrazolo[3,4-d]pyrimidin-6-amine Core Scaffold as Anti-Parkinson’s Disease Agents” (Pharmaceuticals, 2022).

How the values were obtained:
hA1 receptor = biological target: T1, hA1 receptor (Homo sapiens, UniProt P30542); assay: radioligand binding to human A1 receptors, CHO-K1 membranes, [3H]DPCPX
T1 sequence (P30542 1-326): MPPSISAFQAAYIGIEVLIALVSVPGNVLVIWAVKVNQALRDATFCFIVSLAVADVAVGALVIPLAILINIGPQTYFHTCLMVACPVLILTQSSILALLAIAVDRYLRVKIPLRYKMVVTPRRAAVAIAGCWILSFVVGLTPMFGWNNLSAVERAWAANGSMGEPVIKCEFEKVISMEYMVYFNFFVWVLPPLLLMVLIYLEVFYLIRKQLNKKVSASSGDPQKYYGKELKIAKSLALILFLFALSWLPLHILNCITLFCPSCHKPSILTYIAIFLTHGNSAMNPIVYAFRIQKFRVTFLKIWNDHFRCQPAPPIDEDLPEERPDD
Protocol: (§1) The radioligand-binding assays for adenosine receptors were performed at Eurofins Discovery Services (Panlabs, Taiwan). Briefly, stock solutions of the compounds were prepared in DMSO and further diluted with the incubation buffer to the desired concentration. Final DMSO concentrations in the assay were 1.0%. For adenosine A1 screening, a 10 μg aliquots of membrane preparations from human recombinant CHO-K1 cells stably expressing A1 receptors (CHO-K1-hA1AR clone3, EPDST, R200510) were incubated with 1 nM [^3H]DPCPX in incubation buffer (20 mM HEPES, pH 7.4, 10 mM MgCl2, 100 mM NaCl 1.40 nM) for 90 min at 25 °C. Nonspecific binding was estimated in the presence of 100 μM R(-)-PIA. Membranes were filtered and washed 3 times and the filters were counted to determine specifically bound [^3H]DPCPX. Chemical compounds were screened at 10 μM. For A2A screening, membrane preparations from human recombinant HEK-293 cells stably expressing A2A receptors (PerkinElmer, RBHA2AM) were incubated with 0.05 μM [^3H]CGS-21680 in incubation buffer (50 mM Tris-HCl, pH 7.4, 10 mM MgCl2, 1 mM EDTA, 2 U/mL Adenosine Deaminase) for 90 min at 25 °C. Nonspecific binding was estimated in the presence of 50.0 μM NECA. Membranes were filtered and washed 3 times and the filters were counted to determine [^3H]CGS-21680 specifically bound. For A2B screening, membrane preparations from human recombinant HEK-293 cells stably expressing A2B receptors (PerkinElmer, ES-013-M) were incubated with 1.6 nM [^3H]MRS1754 in incubation buffer (50 mM Tris-HCl, pH 6.5, 5 mM MgCl2, 1 mM EDTA, 0.01 % Bacitracin) for 90 min at 25 °C. Nonspecific binding was estimated in the presence of 100 μM NECA. Membranes were filtered and washed 3 times and the filters were counted to determine [^3H]MRS1754 specifically bound. For A3 screening, membrane preparations from human recombinant CHO-K1 cells stably expressing A3 receptors (PerkinElmer, ES-012-M) were incubated with 0.5 nM [^125I]AB-MECA in incubation buffer (25 mM HEPES, pH 7.4, 5 mM MgCl2, 1 mM CaCl2, 0.1 % BSA) for 60 min at 25 °C. Nonspecific binding was estimated in the presence of 1.0 μM IB-MECA.
(§2) IC50 values were determined by a nonlinear, least-squares regression analysis using MathIQ^TM (ID Business Solutions Ltd., Guildford, UK). Where inhibition constants (Ki) were presented, the Ki values were calculated using Cheng and Prusoff equation [18] using the observed IC50 of the compound, the concentration of radioligand employed in the assay, and the historical values for the KD of the ligand (obtained experimentally at Eurofins Panlabs, Inc.). The Hill coefficient (nH), which defines the slope of the competitive binding curve, was calculated using MathIQ^TM.

A2B receptors = biological target: T2, A2B receptors (Homo sapiens, UniProt P29275); assay: radioligand binding to human A2B receptors, HEK-293 membranes, [3H]MRS1754
T2 construct: purchased PerkinElmer ES-013-M
T2 sequence (P29275 1-332): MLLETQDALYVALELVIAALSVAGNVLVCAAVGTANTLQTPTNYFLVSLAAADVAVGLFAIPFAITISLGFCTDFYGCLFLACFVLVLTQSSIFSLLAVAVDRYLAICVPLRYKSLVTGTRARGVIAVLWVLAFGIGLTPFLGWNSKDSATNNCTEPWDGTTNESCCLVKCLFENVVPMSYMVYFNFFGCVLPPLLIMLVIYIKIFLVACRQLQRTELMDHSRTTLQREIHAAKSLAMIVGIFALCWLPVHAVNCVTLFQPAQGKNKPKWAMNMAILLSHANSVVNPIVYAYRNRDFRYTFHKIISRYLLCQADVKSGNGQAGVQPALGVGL
Protocol: as §1, with “For A2B screening, membrane preparations from human recombinant HEK-293 cells stably expressing A2B receptors (PerkinElmer, ES-013-M) were incubated with 1.6 nM [^3H]MRS1754 in incubation buffer (50 mM Tris-HCl, pH 6.5, 5 mM MgCl2, 1 mM EDTA, 0.01 % Bacitracin) for 90 min at 25 °C. Nonspecific binding was estimated in the presence of 100 μM NECA.” left out, “For A3 screening, membrane preparations from human recombinant CHO-K1 cells stably expressing A3 receptors (PerkinElmer, ES-012-M) were incubated with 0.5 nM [^125I]AB-MECA in incubation buffer (25 mM HEPES, pH 7.4, 5 mM MgCl2, 1 mM CaCl2, 0.1 % BSA) for 60 min at 25 °C. Nonspecific binding was estimated in the presence of 1.0 μM IB-MECA.” left out
as §2

[1] = metabolic stability in cryopreserved dog hepatocytes; conditions: dog hepatocytes; 1 μM 11o; little/no compound depletion
Protocol: Metabolic stability of 11o was determined in cryopreserved hepatocytes from mice, rats, dogs, monkeys and human according to the SOPs of Frontage Laboratories Inc. Briefly, cryopreserved hepatocytes for pre-clinical animals and for human (BioIVT, Westbury, NY, USA) were thawed in a 37 °C water bath with gentle shaking until ice had almost melted. The suspensions were immediately transferred to a centrifuge tube (50 mL) containing pre-warmed thawing media at 37 °C with gentle handshaking to prevent the cells from settling. Cell suspensions were centrifuged at 50× g and 4 °C for 5 min. The supernatant was discarded and the pellets were resuspended in prewarmed incubation media (5 mL) at 37 °C. The percentage of viable cells in the suspension was determined by Trypan blue staining method to ensure viability of ≥70 %. […] The samples were centrifuged and aliquots of the supernatant were analyzed for parent compounds by LC/MS/MS using suitable multiple reaction monitoring (MRM) transitions. […] The disappearance of 11o and midazolam was monitored by LC/MS/MS (MRM) analysis of the hepatocyte extracts at each time point. The peak area ratio of the analyte to internal standard was obtained for each sample and the rate of disappearance of 11o was assessed by comparing the peak area ratios at various time points to the peak area ratio obtained at t = 0. The t1/2 is obtained (using the linear portion of semi-log plot of the area ratio vs. time) and the CLint values determined using well-stirred model.

[2] = average of duplicate experiments

Structure (SMILES): Cc1cc(Cn2ncc3c(-c4cccc(C#N)c4F)nc(N)nc32)ccc1N [11o, 3-(6-Amino-1-(4-amino-3-methylbenzyl)-1H-pyrazolo[3,4-d]pyrimidin-4-yl)-2-fluorobenzonitrile]
- nH (Hill coefficient), A1 (hA1 receptor): 1.17
- IC50 (hA1 receptor; [2]): 94 nM
- Ki (hA1 receptor; [2]): 55 nM
- nH (Hill coefficient), A2B (A2B receptors): 0.98
- IC50 (A2B receptors; [2]): 1220 nM
- Ki (A2B receptors; [2]): 400 nM
- stability in dog hepatocytes (in words) [1]: stable in dog hepatocytes
